Source: ChEMBL document CHEMBL1138225, “Synthesis and structure-activity relationships of 3,8-diazabicyclo[4.2.0]octane ligands, potent nicotinic acetylcholine receptor agonists” (J Med Chem, 2006)
Calls of active or inactive are those of the source. The rule behind the calls is not given here.

Assays:
[1] = target: T1, Neuronal acetylcholine receptor; alpha4/beta2 (Homo sapiens, UniProt P17787+P43681); assay: Agonist activity at human alpha4beta2 ACHR expressed in HEK293 cells assessed as change in intracellular calcium concentration by FLIPR; type: functional, cell-based
T1 sequence (P17787 whole entry): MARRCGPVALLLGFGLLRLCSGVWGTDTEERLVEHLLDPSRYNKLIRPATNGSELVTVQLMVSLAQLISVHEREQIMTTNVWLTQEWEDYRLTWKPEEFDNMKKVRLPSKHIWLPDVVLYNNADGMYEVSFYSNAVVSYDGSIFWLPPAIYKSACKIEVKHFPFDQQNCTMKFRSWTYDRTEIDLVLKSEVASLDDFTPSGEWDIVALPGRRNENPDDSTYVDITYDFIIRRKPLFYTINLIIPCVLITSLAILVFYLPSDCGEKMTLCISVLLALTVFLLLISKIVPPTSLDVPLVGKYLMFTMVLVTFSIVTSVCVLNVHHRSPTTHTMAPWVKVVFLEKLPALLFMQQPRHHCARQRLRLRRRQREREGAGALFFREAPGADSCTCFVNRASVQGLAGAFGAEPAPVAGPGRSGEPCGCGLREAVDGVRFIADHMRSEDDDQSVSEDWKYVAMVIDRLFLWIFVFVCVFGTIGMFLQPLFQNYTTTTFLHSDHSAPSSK
T1 sequence (P43681 whole entry): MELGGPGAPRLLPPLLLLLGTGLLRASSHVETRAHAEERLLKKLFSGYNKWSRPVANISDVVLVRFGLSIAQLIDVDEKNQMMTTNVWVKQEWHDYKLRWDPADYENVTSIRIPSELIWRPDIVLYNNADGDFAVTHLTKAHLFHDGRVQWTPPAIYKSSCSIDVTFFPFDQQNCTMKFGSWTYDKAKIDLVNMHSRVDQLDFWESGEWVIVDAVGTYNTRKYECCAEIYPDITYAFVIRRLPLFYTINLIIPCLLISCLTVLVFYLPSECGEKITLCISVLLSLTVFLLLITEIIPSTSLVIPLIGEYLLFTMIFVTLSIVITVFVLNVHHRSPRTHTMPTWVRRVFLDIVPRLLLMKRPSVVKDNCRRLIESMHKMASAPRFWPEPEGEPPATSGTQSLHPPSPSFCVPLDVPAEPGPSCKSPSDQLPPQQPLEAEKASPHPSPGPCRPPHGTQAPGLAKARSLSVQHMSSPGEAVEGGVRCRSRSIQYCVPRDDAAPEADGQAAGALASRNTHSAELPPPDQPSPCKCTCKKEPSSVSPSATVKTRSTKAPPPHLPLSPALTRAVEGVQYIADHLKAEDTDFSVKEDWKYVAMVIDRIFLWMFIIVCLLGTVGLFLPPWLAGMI

Rattus norvegicus = assay: Induction of behavioral side effects in rat formalin model upto 19 umol/kg, […]; type: functional, organism-based
[2] = target: T2, Neuronal acetylcholine receptor; alpha3/beta4 (Homo sapiens, UniProt P30926+P32297); assay: Agonist activity at human alpha-3-beta-4 ACHR expressed in HEK293 cells assessed as change in intracellular calcium concentration by FLIPR; type: functional, cell-based
T2 sequence (P30926 whole entry): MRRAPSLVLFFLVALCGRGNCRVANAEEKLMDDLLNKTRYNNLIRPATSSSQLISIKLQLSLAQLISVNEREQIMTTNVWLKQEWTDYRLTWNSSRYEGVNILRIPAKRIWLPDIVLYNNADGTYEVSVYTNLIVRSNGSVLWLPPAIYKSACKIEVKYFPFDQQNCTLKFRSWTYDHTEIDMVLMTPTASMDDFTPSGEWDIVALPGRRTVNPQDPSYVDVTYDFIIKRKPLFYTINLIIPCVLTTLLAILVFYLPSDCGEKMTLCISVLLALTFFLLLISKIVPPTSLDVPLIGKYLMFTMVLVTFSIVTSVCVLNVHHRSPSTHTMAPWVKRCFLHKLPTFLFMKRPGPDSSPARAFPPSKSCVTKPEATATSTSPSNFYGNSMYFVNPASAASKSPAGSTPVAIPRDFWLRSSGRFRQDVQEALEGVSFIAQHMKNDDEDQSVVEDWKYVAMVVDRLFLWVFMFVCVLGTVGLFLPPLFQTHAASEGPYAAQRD
T2 sequence (P32297 whole entry): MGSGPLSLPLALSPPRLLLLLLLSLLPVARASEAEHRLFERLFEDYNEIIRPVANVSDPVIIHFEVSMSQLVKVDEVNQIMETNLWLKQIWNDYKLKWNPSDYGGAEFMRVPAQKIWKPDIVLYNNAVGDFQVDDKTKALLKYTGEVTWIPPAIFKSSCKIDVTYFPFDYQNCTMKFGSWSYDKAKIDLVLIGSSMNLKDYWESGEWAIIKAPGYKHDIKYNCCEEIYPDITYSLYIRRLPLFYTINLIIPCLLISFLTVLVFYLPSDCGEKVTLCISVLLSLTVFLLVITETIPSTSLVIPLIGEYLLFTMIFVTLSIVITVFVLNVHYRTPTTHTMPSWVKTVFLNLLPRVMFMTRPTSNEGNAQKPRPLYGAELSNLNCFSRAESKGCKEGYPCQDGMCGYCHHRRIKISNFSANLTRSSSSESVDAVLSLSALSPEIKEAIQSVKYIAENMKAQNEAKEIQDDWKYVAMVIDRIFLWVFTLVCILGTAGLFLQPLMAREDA

[3] = target: T1, Neuronal acetylcholine receptor; alpha4/beta2; assay: Maximal agonist activity on human alpha-4-beta-2 ACHR expressed in HEK293 cells assessed as change in intracellular calcium concentration by FLIPR relative to nicotine; type: functional, cell-based
[4] = target: T2, Neuronal acetylcholine receptor; alpha3/beta4; assay: Maximal agonist activity at human alpha-3-beta-4 ACHR expressed in HEK293 cells assessed as change in intracellular calcium concentration by FLIPR relative to nicotine; type: functional, cell-based
[5] = target: Neuronal acetylcholine receptor; alpha4/beta2 (Rattus norvegicus, UniProt P09483+P12390); assay: Displacement of [3H]cytisine from alpha-4-beta-2 ACHR in rat brain homogenate; type: tissue-based
Sequence of Neuronal acetylcholine receptor; alpha4/beta2 (Rattus norvegicus, UniProt P09483+P12390) (P09483 whole entry): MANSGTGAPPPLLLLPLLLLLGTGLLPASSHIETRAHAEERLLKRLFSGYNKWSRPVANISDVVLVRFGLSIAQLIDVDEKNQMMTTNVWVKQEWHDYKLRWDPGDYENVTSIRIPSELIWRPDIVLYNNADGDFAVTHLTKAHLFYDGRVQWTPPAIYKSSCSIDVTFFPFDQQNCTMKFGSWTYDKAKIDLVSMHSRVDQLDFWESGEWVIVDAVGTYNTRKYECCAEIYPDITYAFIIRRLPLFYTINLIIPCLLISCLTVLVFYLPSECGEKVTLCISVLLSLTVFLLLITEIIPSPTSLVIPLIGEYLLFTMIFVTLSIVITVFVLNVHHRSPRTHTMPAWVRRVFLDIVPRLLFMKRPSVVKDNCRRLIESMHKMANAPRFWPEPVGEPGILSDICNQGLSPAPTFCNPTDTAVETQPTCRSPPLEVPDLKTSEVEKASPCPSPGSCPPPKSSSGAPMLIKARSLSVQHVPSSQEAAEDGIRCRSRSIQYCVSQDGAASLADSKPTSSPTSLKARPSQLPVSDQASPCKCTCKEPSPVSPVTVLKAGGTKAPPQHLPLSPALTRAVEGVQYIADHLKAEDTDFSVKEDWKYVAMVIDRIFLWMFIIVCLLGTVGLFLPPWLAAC
Sequence of Neuronal acetylcholine receptor; alpha4/beta2 (Rattus norvegicus, UniProt P09483+P12390) (P12390 whole entry): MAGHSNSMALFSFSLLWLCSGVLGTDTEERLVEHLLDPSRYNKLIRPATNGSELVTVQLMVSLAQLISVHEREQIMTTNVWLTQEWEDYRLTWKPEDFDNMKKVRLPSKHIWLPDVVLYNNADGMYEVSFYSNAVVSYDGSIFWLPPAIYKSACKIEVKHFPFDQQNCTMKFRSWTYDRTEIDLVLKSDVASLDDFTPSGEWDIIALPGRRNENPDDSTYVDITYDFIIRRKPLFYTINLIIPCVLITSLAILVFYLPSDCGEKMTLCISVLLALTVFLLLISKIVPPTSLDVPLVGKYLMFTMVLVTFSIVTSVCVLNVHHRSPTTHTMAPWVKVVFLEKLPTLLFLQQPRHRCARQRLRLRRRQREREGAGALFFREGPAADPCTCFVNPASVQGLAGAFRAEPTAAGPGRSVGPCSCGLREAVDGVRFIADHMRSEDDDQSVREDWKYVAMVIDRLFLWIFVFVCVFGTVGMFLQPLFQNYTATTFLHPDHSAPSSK

Row | Compound | EC50 [1] [nM] | Activity (Rattus norvegicus) | EC50 [2] [nM] | Activity [3] [%] | Activity [4] [%] | Ki [5] [nM]
1 | c1cncc(N2C[C@@H]3CCNC[C@@H]32)c1 | 410 | Active | 1700 | 105 | 98 | –
2 | N#Cc1cc(N2C[C@H]3CCNC[C@H]32)cnc1Br | 172 | – | 238 | 157 | 100 | 0.3
3 | c1cncc(N2CC[C@H]3CN[C@H]3C2)c1 | 71 | – | 48 | 171 | 121 | 0.035
4 | Cc1cc(N2CC[C@H]3CN[C@H]3C2)cnc1Cl | 7.2 | – | 7.2 | 207 | 123 | 0.031
5 | Clc1ccc(N2C[C@H]3CCNC[C@H]32)cn1 | 216 | – | 1520 | 102 | 93 | 0.8
6 | Clc1ccc(N2CC[C@@H]3CN[C@@H]3C2)cn1 | 24 | – | 25 | 130 | 125 | 0.032
7 | Brc1cncc(N2CC[C@@H]3CN[C@@H]3C2)c1 (single isomer, unassigned) | 1000 | – | 950 | 58 | 91 | 0.053
8 | Clc1cc(N2CC[C@H]3CN[C@H]3C2)cnc1Cl | 12 | – | 9.9 | 221 | 132 | 0.025
9 | COc1cncc(N2C[C@@H]3CCNC[C@@H]32)c1 | 7690 | – | 63500 | 44 | 47 | 4.4
10 | c1cncc(N2C[C@H]3CCNC[C@H]32)c1 | 1400 | – | 1540 | 84 | 97 | –
11 | N/C(=N/O)c1cncc(N2CC[C@@H]3CN[C@@H]3C2)c1 | – | – | – | 194 | 99 | –
12 | CCOc1cncc(N2CC[C@@H]3CN[C@@H]3C2)c1 | 1350 | – | 2800 | 18 | 86 | 0.16
13 | COc1ccc(N2CC[C@H]3CN[C@H]3C2)cn1 | 2200 | – | 1100 | 96 | 88 | 0.98
14 | NC(=O)c1cc(N2C[C@H]3CCNC[C@H]32)cnc1Br | 340 | – | 7460 | 133 | 90 | –
15 | N#Cc1cc(N2CC[C@H]3CN[C@H]3C2)cnc1Br | 6.1 | – | 4.4 | 215 | 133 | 0.027
16 | c1ncc(N2CC[C@@H]3CN[C@@H]3C2)cn1 | 4390 | – | 1020 | 79 | 106 | 0.2
17 | COc1cncc(N2C[C@H]3CCNC[C@H]32)c1 | 1100 | – | 4360 | 104 | 88 | 0.56
18 | N#Cc1cc(N2C[C@@H]3CCNC[C@@H]32)cnc1Br | 109 | Active | 794 | 104 | 88 | 0.07
19 | Cc1cncc(N2CC[C@@H]3CN[C@@H]3C2)c1 | 650 | inactive | 1400 | 54 | 87 | 0.064
20 | Cc1cc(N2CC[C@@H]3CN[C@@H]3C2)cnc1Cl | 47 | inactive | 71 | 90 | 103 | 0.037

Row | Compound | EC50 [1] [nM] | Activity (Rattus norvegicus) | EC50 [2] [nM] | Activity [3] [%] | Activity [4] [%] | Ki [5] [nM]
21 | Clc1ccc(N2CC[C@H]3CN[C@H]3C2)nn1 | 78.3 | – | 64.8 | 222 | 128 | 0.15
22 | c1cncc(N2CC[C@@H]3CN[C@@H]3C2)c1 | 330 | – | 260 | 112 | 118 | 0.059
23 | COc1cc(N2C[C@H]3CCNC[C@H]32)cnc1Br | 200 | – | 202 | 120 | 98 | 0.085
24 | N#Cc1cncc(N2C[C@@H]3CCNC[C@@H]32)c1 | 2190 | – | 2560 | 64 | 91 | 0.5
25 | Clc1ccc(N2CC[C@@H]3CN[C@@H]3C2)nn1 | 359 | Active | 394 | 129 | 113 | 2.7
26 | Clc1cc(N2C[C@@H]3CCNC[C@@H]32)cnc1Cl | 271 | Active | 4110 | 60 | 69 | –
27 | COc1cc(N2C[C@@H]3CCNC[C@@H]32)cnc1Br | 1690 | – | 2980 | 65 | 84 | 1.4
28 | NC(=O)c1cc(N2C[C@@H]3CCNC[C@@H]32)cnc1Br | 1490 | – | 23300 | 75 | 73 | 2.8
29 | O=[N+]([O-])c1ccc(N2CC[C@H]3CN[C@H]3C2)cn1 | 100 | – | 390 | 196 | 119 | 1.5
30 | Clc1cc(N2C[C@H]3CCNC[C@H]32)cnc1Cl | 176 | – | 339 | 127 | 103 | 0.3
31 | N#Cc1cncc(N2C[C@H]3CCNC[C@H]32)c1 | 1930 | – | 5560 | 83 | 71 | 2.6
32 | c1ncc(N2C[C@@H]3CCNC[C@@H]32)cn1 (single isomer, unassigned) | 8420 | – | 9940 | 104 | 93 | 1.6
33 | COc1cc(N2CC[C@H]3CN[C@H]3C2)cnc1Br | 21 | – | 8 | 217 | 120 | 0.027
34 | CCOc1cncc(N2CC[C@H]3CN[C@H]3C2)c1 | 620 | – | 124 | 116 | 103 | 0.052
35 | O=[N+]([O-])c1ccc(N2CC[C@@H]3CN[C@@H]3C2)cn1 | 110 | Active | 830 | 114 | 98 | 2.4
36 | c1ncc(N2CC[C@H]3CN[C@H]3C2)cn1 | 350 | – | 108 | 181 | 121 | 0.04
37 | COc1cc(N2CC[C@@H]3CN[C@@H]3C2)cnc1Br | 360 | – | 160 | 40 | 108 | 0.069
38 | COc1ccc(N2CC[C@@H]3CN[C@@H]3C2)cn1 | 4980 | – | 2400 | 54 | 93 | 2.7
39 | Brc1cncc(N2CC[C@H]3CN[C@H]3C2)c1 | 150 | – | 76 | 148 | 122 | 0.024
